According to patent US6683162B2, “Targeted alpha particle therapy using actinium-255 conjugates” (Sloan Kettering Institute of Cancer Research, priority 2000, dated 2004):
Like-named read-outs stand apart in the source and are kept apart here.

How the values were obtained:
[1] = Stability of 225Ac complexes of simple chelants: yttrium challenge and C-25 column elution
Method: Approximately, 200 μCi of ^225Ac solution was mixed with 10 μl of 50 mM of a ligand solution (such as DOTA) and pH was adjusted to about 6-6.5 with 33 μl of 3 M ammonium acetate. The reaction was kept in a water bath at 37° C. for completion in 2 hours. Reaction yield was monitored using 10 mM NaOH/9% NaCl solvent. Then, 10 μl of 77.5 mM Yttrium chloride solution was added to react with excess chelants for 30 minutes. There are two reasons for adding the 1.5 fold excess Yttrium: 1) if ^225Ac complex is not stable, Yttrium will replace ^225Ac c, and 2) Yttrium will react with chelants and make a final solution at metal excess. The excess metal will be held on a C-25 purification column and the radiometal complex can pass through the column. Therefore, the purified solution should contain a 1:1 metal to ligand ratio for the stability studies.
Each reaction solution was purified through a 1 ml C-25 column using a 5 ml of normal saline as eluting buffer. The first 2.5 ml elution was collected for the stability study. The activity in the eluate and the activity retaining on the column were measured using a dose calibrator 20 hours after purification.

[2] = Long-term in vitro stability of 225Ac-DOTA complex in 25% human serum (ITLC); format: in vitro ADME; settings: 37° C., after 1 month
Method: 100% human serum (Sigma Chemical Co., St. Louis, Mo.), 100% mouse serum and 25% human serum albumin (Swiss Red Cross, Bern, Switzerland) was used to determine stability of the ^225 Ac complexes and conjugates. Aliquots in serum are mixed with diethylenetriaminepentaacetic acid (DPTA) (Aldrich Chemical Co., Milwaukee, Wis.). ITLC was utilized with either a 10 mM EDTA or 10 mM NaOH/9% NaCl solvent system and ITLC SG strips (Gelman Science Inc., Ann Arbor, Mich.) to assess the complexation and conjugation efficiency of the chelants. The ITLC strips were analyzed by gas ionization detection with an Ambis 4000 (Ambis, San Diego, Calif.).
Long-term in vitro stability of the ^225Ac-DOTA complex was tested by mixing 100 μl of the purified sample with 900 μl of 25% human serum. The ^225Ac-DOTA and solution was incubated at 37° C. and sampled periodically over the course of 30 days. The samples were analyzed by ITLC.

[3] = Liver accumulation of free 225Ac (acetate) injected into a mouse; format: in vivo
Method: In contrast to these two [225Ac]DOTA-IgG constructs, free ^225Ac (acetate) injected into a mouse rapidly accumulates in the liver: 40%, 40%, 65% at 24 h, 48 h, and 120 h, respectively.

[4] = system: human HL60 leukemia cells; settings: Bi-213 construct, S.A. 8.4 Ci/g; cited from earlier work
leukemia cells = settings: cumulative doses of up to 3.7 GBq (100 mCi); cited from earlier work
[5] = after yttrium addition, C-25 column

O=C(O)CCN1CCN(CCC(=O)O)CCN(CCC(=O)O)CCN(CCC(=O)O)CC1 [DOTPA]
stability of 225Ac complex (all 225Ac retained on the column) [1, 5]: unstable

O=C([O-])CN1CCN(CC(=O)[O-])CCN(CC(=O)[O-])CCN(CC(=O)[O-])CC1.[225Ac+3] [225Ac-DOTA]
metal remains complexed [2]: 85%
percentage of 225Ac activity eluted from the column ([1]; after […] excess yttrium, 1 ml C-25 column, normal saline, activity measured 20 hours after purification): 98.7%

O=C(O)CN(CCN(CC(=O)O)CC(=O)O)CCN(CC(=O)O)CC(=O)O (225Ac complex, metal not drawn) [DTPA]
stability of 225Ac complex (all 225Ac retained on the column) [1]: unstable

O=C(O)CCN1CCCN(CCC(=O)O)CCN(CCC(=O)O)CCCN(CCC(=O)O)CC1 [TETPA]
stability of 225Ac complex (all 225Ac retained on the column) [1, 5]: unstable

O=C(O)CN1CCCN(CC(=O)O)CCN(CC(=O)O)CCCN(CC(=O)O)CC1 [TETA]
stability of 225Ac complex (all 225Ac retained on the column) [1, 5]: unstable

CC(=O)[O-].CC(=O)[O-].CC(=O)[O-].[225Ac+3] [free 225Ac (acetate)]
accumulation in the liver ([3]; 24 h): 40%
accumulation in the liver ([3]; 48 h): 40%
accumulation in the liver ([3]; 120 h): 65%

[Bi-213]HuM195: 213Bi alpha-particle emitting HuM195 antibody construct, comparator
LD50 [4]: 200,000 pCi/mL
tumorocidal activity for leukemia cells (leukemia cells): major tumorocidal activity
